Converted amounts (≈) assume the structure as drawn.
What was measured:
Type in all cases: functional, cell-based
A549 = experiment: Cytotoxicity against human A549 cells
HT-29 = experiment: Cytotoxicity against human HT29 cells
[1] = Cytotoxicity against mouse SCHABEL cells
SK-MEL-28 = experiment: Cytotoxicity against human SK-MEL-28 cells
P388 = experiment: Cytotoxicity against mouse P388 cells

Compound | IC50 (A549) | IC50 (HT-29) | IC50 [1] | IC50 (SK-MEL-28) | IC50 (P388)
C=C1C(=O)O[C@@H]2/C=C(\CO)CC/C=C(\C)C[C@H](OC(=O)/C(C)=C\COC(C)=O)[C@@H]12 | 5 µg/mL | 5 µg/mL | 2.5 µg/mL (≈ 6.18 µM) | 5 µg/mL (≈ 12.4 µM) | 2.5 µg/mL
C=C1C(=O)O[C@@H]2/C=C(\CO)CC/C=C(\C)C[C@H](OC(=O)C(=C)[C@H](O)CO)[C@@H]12 [CNICIN] | 13.2 µM | 13.2 µM | – | – | 6.6 µM
C=C1C(=O)O[C@H]2[C@H]1[C@@H](OC(=O)C(=C)[C@@H](O)CO)C[C@]1(C)[C@@H]2[C@@H](C=O)CC[C@H]1O [MALACITANOLIDE] | 0.12 µg/mL | 0.12 µg/mL | 0.12 µg/mL (≈ 0.304 µM) | 0.12 µg/mL (≈ 0.304 µM) | 0.12 µg/mL
